From US11414431B2, “Substituted pyrazolo[1,5-a]pyrimidines as TYK2 inhibitors” (Nimbus Lakshmi, Inc., priority 2018, dated 2022)

Test system: IL-12 induced STAT4 phosphorlyation mediated by TYK2/JAK2
Assay: IL-12 Induced pSTAT4 in Human PBMC
Type: cell-based
Details: 1.7 ng/mL IL-12 for 30 minutes
In short: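 Thawed human PBMC pre-incubated with compound 1 hr at 37° C (0.1% DMSO final), then stimulated 30 minutes with IL-12 at 1.7 ng/mL final. pSTAT4 and total STAT4 measured in cell lysates with MSD reagents.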

Compound | IC50 [µM]
CNc1cc(Nc2cccn([C@H]3CCCC[C@H]3O)c2=O)nc2c(C(=O)NC3CC[C@]3(C)OC)cnn12 (some centres unmarked) [Compound I-423] | < 0.1
CNc1cc(Nc2cccn([C@H]3CCCC[C@H]3O)c2=O)nc2c(C(=O)N[C@H]3CC[C@]3(C)OC)cnn12 [Compound I-424] | < 0.1
CNc1cc(Nc2cccn([C@H]3CC[C@H](OC)CC3)c2=O)nc2c(C(=O)N[C@@H]3CC[C@@]3(C)OC)cnn12 [Compound I-428] | < 0.1
CNc1cc(Nc2cccn([C@H]3CC[C@@H](OC)CC3)c2=O)nc2c(C(=O)N[C@@H]3CC[C@@]3(C)OC)cnn12 [Compound I-431] | < 0.1
CNc1cc(Nc2cccn([C@H]3C[C@H](F)C3)c2=O)nc2c(C(=O)N[C@H]3CC[C@H](O)C3)cnn12 [Compound I-436] | < 0.1
CNc1ccc(-c2cc(NC)n3ncc(C(=O)N[C@H]4CC[C@@H]4F)c3n2)n2ccnc12 [Compound I-481] | < 0.1
CNc1ccc(-c2cc(NC)n3ncc(C(=O)NC4CC[C@H]4F)c3n2)n2ccnc12 (some centres unmarked) [Compound I-483] | < 0.1
CNc1ccc(-c2cc(NC)n3ncc(C(=O)NC4CC[C@H]4O)c3n2)n2ccnc12 (some centres unmarked) [Compound I-484] | < 0.1
CNc1ccc(-c2cc(NC)n3ncc(C(=O)N[C@H]4CC[C@H]4O)c3n2)n2ccnc12 [Compound I-485] | < 0.1
CNc1cc(-c2cn([C@H]3C[C@@H](O)C3)c3ncccc23)nc2c(C(=O)NC3CC[C@@H]3F)cnn12 (some centres unmarked) [Compound I-510] | < 0.1
CNc1cc(-c2cn([C@H]3C[C@@H](O)C3)c3ncccc23)nc2c(C(=O)N[C@H]3CC[C@@H]3F)cnn12 [Compound I-511] | < 0.1
CNc1cc(-c2cn(C3CN(C)C3)c3ncccc23)nc2c(C(=O)NC3CC[C@@H]3F)cnn12 (some centres unmarked) [Compound I-513] | < 0.1
CNc1cc(-c2cn(C3CN(C)C3)c3ncccc23)nc2c(C(=O)N[C@H]3CC[C@@H]3F)cnn12 [Compound I-514] | < 0.1
CNc1cc(-c2cn([C@H]3COC[C@@H]3OC)c3ncccc23)nc2c(C(=O)N[C@H]3CC[C@@H]3F)cnn12 [Compound I-523] | < 0.1
CNc1cc(-c2cn([C@H]3COC[C@@H]3OC)c3ncccc23)nc2c(C(=O)NC3CC[C@H]3F)cnn12 (some centres unmarked) [Compound I-528] | < 0.1
CNc1cc(-c2cn([C@H]3COC[C@@H]3OC)c3ncccc23)nc2c(C(=O)N[C@H]3CC[C@H]3F)cnn12 [Compound I-529] | < 0.1
CNc1cc(-c2cn([C@H]3COC[C@@H]3OC)c3ncccc23)nc2c(C(=O)N[C@@H]3CC[C@@H]3F)cnn12 [Compound I-530] | < 0.1
CNc1cc(-c2cn([C@@H]3COC[C@H]3OC)c3ncccc23)nc2c(C(=O)NC3CC[C@H]3F)cnn12 (some centres unmarked) [Compound I-531] | < 0.1
CNc1cc(-c2cn([C@@H]3CCOC[C@H]3O)c3ncccc23)nc2c(C(=O)N[C@H]3CC[C@@H]3F)cnn12 [Compound I-538] | < 0.1
CNc1cc(-c2cn([C@H]3CCOC[C@H]3OC)c3ncccc23)nc2c(C(=O)NC3CC[C@@H]3F)cnn12 (some centres unmarked) [Compound I-546] | < 0.1
CNc1cc(-c2cn([C@@H]3CC3(F)F)c3ncccc23)nc2c(C(=O)NC3CC[C@H]3O)cnn12 (some centres unmarked) [Compound I-548] | < 0.1
CNc1cc(-c2cn([C@@H]3CC3(F)F)c3ncccc23)nc2c(C(=O)N[C@H]3CC[C@H]3O)cnn12 [Compound I-549] | < 0.1
CNc1cc(-c2cn([C@H]3CC3(F)F)c3ncccc23)nc2c(C(=O)N[C@H]3CC[C@H]3O)cnn12 [Compound I-552] | < 0.1
CNc1cc(-c2cn(C3COC3)c3ncccc23)nc2c(C(=O)N[C@H]3CC[C@H]3O)cnn12 [Compound I-555] | < 0.1
CNc1cc(-c2cn(C3COC3)c3ncccc23)nc2c(C(=O)N[C@H]3CC[C@@H]3O)cnn12 [Compound I-558] | < 0.1
CNc1cc(-c2cn([C@@H]3COC[C@@H]3F)c3ncccc23)nc2c(C(=O)N[C@H]3CC[C@H]3O)cnn12 [Compound I-571] | < 0.1
CNc1cc(-c2cn([C@H]3COC[C@H]3F)c3ncccc23)nc2c(C(=O)NC3CC[C@H]3O)cnn12 (some centres unmarked) [Compound I-573] | < 0.1
CNc1cc(-c2cn([C@H]3COC[C@H]3F)c3ncccc23)nc2c(C(=O)N[C@H]3CC[C@H]3O)cnn12 [Compound I-574] | < 0.1

Next, values leading:

IC50 [µM] | Compound
0.1 to 0.5 | CNc1cc(-c2cn([C@@H]3COC[C@H]3OC)c3ncccc23)nc2c(C(=O)N[C@@H]3CC[C@@H]3O)cnn12 [Compound I-583]
0.5 to 1 | CNc1cc(-c2cn([C@@H]3COC[C@H]3OC)c3ncccc23)nc2c(C(=O)NC3CC[C@H]3O)cnn12 (some centres unmarked) [Compound I-587]
0.1 to 0.5 | CNc1cc(-c2cn([C@@H]3CCOC[C@@H]3F)c3ncccc23)nc2c(C(=O)NC3CC[C@H]3O)cnn12 (some centres unmarked) [Compound I-588]
0.5 to 1 | CNc1cc(-c2cn([C@H]3CCOC[C@H]3F)c3ncccc23)nc2c(C(=O)NC3CC[C@H]3O)cnn12 (some centres unmarked) [Compound I-591]
< 0.1 | CNc1cc(-c2cn([C@H]3C[C@@H](O)C3)c3ncccc23)nc2c(C(=O)N[C@H]3CC[C@@H]3OC)cnn12 [Compound I-606]
< 0.1 | CNc1cc(-c2cn([C@@H]3CCOC3)c3ncccc23)nc2c(C(=O)NC3CC[C@@H]3OC)cnn12 (some centres unmarked) [Compound I-609]
< 0.1 | CNc1cc(-c2cn([C@@H]3CCOC3)c3ncccc23)nc2c(C(=O)N[C@H]3CC[C@@H]3OC)cnn12 [Compound I-610]
< 0.1 | CNc1cc(-c2cn([C@H]3CCOC3)c3ncccc23)nc2c(C(=O)NC3CC[C@@H]3OC)cnn12 (some centres unmarked) [Compound I-612]
< 0.1 | CNc1cc(-c2cn([C@H]3CCOC3)c3ncccc23)nc2c(C(=O)N[C@H]3CC[C@@H]3OC)cnn12 [Compound I-613]
< 0.1 | CNc1cc(-c2cn([C@@H]3CCN(C)C3)c3ncccc23)nc2c(C(=O)NC3CC[C@@H]3OC)cnn12 (some centres unmarked) [Compound I-615]
< 0.1 | CNc1cc(-c2cn([C@@H]3CCN(C)C3)c3ncccc23)nc2c(C(=O)N[C@H]3CC[C@@H]3OC)cnn12 [Compound I-616]
< 0.1 | CNc1cc(-c2cn([C@H]3CCN(C)C3)c3ncccc23)nc2c(C(=O)NC3CC[C@@H]3OC)cnn12 (some centres unmarked) [Compound I-618]
< 0.1 | CNc1cc(-c2cn([C@H]3CCN(C)C3)c3ncccc23)nc2c(C(=O)N[C@H]3CC[C@@H]3OC)cnn12 [Compound I-619]
< 0.1 | CNc1cc(-c2cn([C@@H]3COC[C@@H]3F)c3ncccc23)nc2c(C(=O)NC3CC[C@@H]3OC)cnn12 (some centres unmarked) [Compound I-621]
< 0.1 | CNc1cc(-c2cn([C@@H]3COC[C@@H]3F)c3ncccc23)nc2c(C(=O)N[C@H]3CC[C@@H]3OC)cnn12 [Compound I-622]

Same assay, conditions: 0.5 h, 1.7 ng/mL IL-12 for 30 minutes

IC50 [µM] | Compound
< 0.1 | CNc1cc(-c2cn([C@@H]3CCOC[C@H]3F)c3ncccc23)nc2c(C(=O)NC3CC[C@H]3O)cnn12 (stereo partly drawn) [Compound I-592, 5-(1-((3S,4R)-3-Fluorotetrahydro-2H-pyran-4-yl)-1H-pyrrolo[2,3-b]pyridin-3-yl)-N-((cis-1,2)-2-hydroxycyclobutyl)-7-(methylamino)pyrazolo[1,5-a]pyrimidine-3-carboxamide]
